In PubChem BioAssay (NCI):
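Five compound concentrations were applied to cells in 96-well plates for 48 hours; endpoints were derived by simple linear interpolation of the resulting dose-response curve. The concentration for 50% growth inhibition is given as GI50. TGI: concentration producing complete growth inhibition.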

Tests used:
Experiment in all cases: DTP human tumour cell line panel, 48 h
IGROV1 ovarian = test system: IGROV1 ovarian
OVCAR-5 ovarian = test system: OVCAR-5 ovarian
EKVX NSCLC = test system: EKVX NSCLC
A498 renal = test system: A498 renal
K-562 leukemia = test system: K-562 leukemia
SNB-19 CNS = test system: SNB-19 CNS
LOX IMVI melanoma = test system: LOX IMVI melanoma
OVCAR-4 ovarian = test system: OVCAR-4 ovarian
CCRF-CEM leukemia = test system: CCRF-CEM leukemia
NCI-H226 lung = test system: NCI-H226 lung

Row | Compound | TGI (IGROV1 ovarian) [µM] | TGI (OVCAR-5 ovarian) [µM] | TGI (EKVX NSCLC) [µM] | TGI (A498 renal) [µM] | TGI (K-562 leukemia) [µM] | TGI (SNB-19 CNS) [µM] | TGI (LOX IMVI melanoma) [µM] | TGI (OVCAR-4 ovarian) [µM] | TGI (CCRF-CEM leukemia) [µM] | TGI (NCI-H226 lung) [µM] | GI50 (IGROV1 ovarian) [µM] | GI50 (OVCAR-5 ovarian) [µM] | GI50 (EKVX NSCLC) [µM] | GI50 (A498 renal) [µM] | GI50 (K-562 leukemia) [µM] | GI50 (SNB-19 CNS) [µM] | GI50 (LOX IMVI melanoma) [µM] | GI50 (OVCAR-4 ovarian) [µM] | GI50 (CCRF-CEM leukemia) [µM] | GI50 (NCI-H226 lung) [µM]
1 | Cc1ccc(C)c(NC(=O)C(=O)C2C(=O)N(c3ccccc3)N=C2N)c1 (stereo not given) | > 100 | > 100 | > 100 | > 100 | > 100 | > 100 | > 100 | > 100 | > 100 | > 100 |  |  |  |  |  |  |  |  |  | 
2 | CCCCCCCCC(C)CCCCCCCCC(=O)OCC(COP(=O)([O-])OCC[N+](C)(C)C)OC(=O)CCCCCCCCC(C)CCCCCCCC (stereo not given) | > 100 | > 100 | > 100 | > 100 | > 100 | > 100 | > 100 | > 100 | > 100 | > 100 |  |  |  |  |  |  |  |  |  | 
3 | C(=C\c1ccncc1)/c1ccncc1 | > 100 | > 100 | > 100 | > 100 | > 100 | > 100 | > 100 | > 100 | > 100 | > 100 | > 100 | > 100 | > 100 | 10 | > 100 | > 100 | > 100 | > 100 | > 100 | > 100
4 | COC(=O)C(=O)C(C(C)=O)C(=O)NCc1ccccc1 (stereo not given) | > 100 | > 100 | > 100 | > 100 | > 100 | > 100 | > 100 | > 100 | > 100 | > 100 |  |  |  |  |  |  |  |  |  | 
